Results taken from patent US11819499B2, “Single-dose, ready-to-use injectable formulations” (BioSplice Therapeutics, Inc., priority 2016, dated 2023).

Tests used:
Assay type in all cases: physicochemical
[1] = Dynamic vapor sorption (DVS) scan; settings: at 90% RH
Description: The purity of the Form 13 sample was 98.8%; the KF of an undried Form 13 sample was 35.7%.

[2] = Exposure to relative humidity / air followed by XRD
Description: FIGS. 15A-15D are scans of Form 1 in the presence of increasing relative humidity (RH), an example of a non-stoichiometric or stoichiometric hydrate of polymorph Form 1 of the compound of Formula (I). FIG. 15A is an x-ray powder diffraction scan of Form 1 exposed to 10% RH as the anhydrous Form 1. FIG. 15B is an x-ray powder diffraction scan of Form 1 exposed to 20% RH as a partial hydrate of Form 1. FIG. 15C is an x-ray powder diffraction scan of Form 1 exposed to 30% RH as a hydrate of Form 1 (≈10-12% water uptake). FIG. 15D is an x-ray powder diffraction scan of Form 1 exposed to 90% RH as a full hydrate of Form 1 (≈17-20% water uptake). […] The hydrate lost its water below 30% RH. […] The crystal lattice of Form 1 expanded when water was sorbed, giving rise to XRD peaks at ˜5, ˜7 and ˜11 degrees while maintaining the main XRD pattern. The hydrates of Form 1 of a compound of Formula (I) (Form 11) were fully reversible, and lost water when exposed to % RH of less than 20%, turning Form 11 to hydrated forms of Form 1 and to the anhydrous Form 1. Solvates 1 and 2 solids were exposed to air overnight, and then analyzed by XRD. After the analysis, the solids were dried at 50° C. under vacuum, and then analyzed by XRD again.

[3] = Drying or heating in a DSC chamber followed by XRD (form conversion)
Description: The Form 1 solid was dried at 75° C. under vacuum overnight, and XRD, DSC, and TGA scans were performed. […] However, the DSC scans indicated the absence of endotherm. The loss of the early peak on the DSC scan had no effect on the XRD trace, showing that the wide endotherm between 50-100° C. on DSC scan was due to the free solvent.
The Form 1 solid was heated in a DSC chamber to 305° C. (past the endotherm/exotherm around 280° C.), and then scanned by XRD. […] It can be concluded that the endotherm/exotherm around 280° C. might be due to melting/crystallization events.
The Form 2 solid was heated in a DSC machine to 90° C. (past the wide endotherm between 50-100° C.); to 270° C. (past the endotherm/exotherm around 240° C.); and finally to 330° C. (past the […]). The residual solid was analyzed by XRD. […] The wide endotherm between 50-100° C. might be free solvent or hydrate. […] Thus, the exotherm around 290° C. was a re-crystallization event. According to an XRD and DSC overlay, the behavior of Form 2* was similar to Form 2.
This has been confirmed for Forms 1 and 2.
Form 13 solid was heated in a DSC chamber to 170° C. (past the endotherm between 50-100° C.), and then scanned by XRD. […] It can be concluded that the endotherm between 50-100° C. is due to bonded water.
Form 13 solid was heated in a DSC chamber to 330° C. (past the endotherm/exotherm around 300° C.), and then scanned by XRD. […] It can be concluded that the endotherm/exotherm is due to melting/crystallization events.

[4] = Exposure to relative humidity / air followed by XRD; remark: listed apart in the source
[5] = Reslurry experiments (polymorph screen) in 39 pure and binary solvents at RT and 50° C. for 5 days, XRD of wet and dry samples
Description: Reslurry experiments in various solvents were performed. Approximately 30-80 mg of the starting solid (a non-stoichiometric or stoichiometric hydrate of Form 1 having between 1% and about 20% by weight water) was slurried in 39 different solvents (pure and binary solvents; the ratio of organic solvent/water (V/V) was 95%/5%) at RT and 50° C. for 5 days. Three solvates, one hydrate, and eleven non-solvated forms were identified. […] XRD of both wet and dry samples were scanned (FIG. 12A (dry sample)).
The slurry experiments identified 3 solvated forms from wet samples (Solvates 1, 2, and 3); 2 non-stoichiometric hydrates of Form 1 (Forms 12 and 13); and 11 non-solvated forms (Forms 1-11). In some instances, similar XRD scans with minor differences were obtained. These were considered to be part of the same class (e.g., the same form). For example, XRD scans of Form 2 and Form 2* were similar and were considered to belong to the same class. The solvated forms were obtained from wet sample analysis; after drying, the sample indicated a different XRD.
Solvate 1 was obtained from acetone at RT, and after drying, a low crystallinity solid was generated. Solvate 2 was obtained from acetone (at RT) and acetone/water (at RT), and after drying, Form 4** was generated. Solvate 3 was obtained from EtOH/water at RT, and after drying, Form 2 was generated.

[6] = Competitive slurry experiments between polymorph forms (15 forms mixed, 3-5 days, XRD); settings: water at RT and 50° C.
Description: In order to find out the thermodynamic stability between the different forms, several competitive slurry experiments were carried out. Form 1, Form 2, Form 2*, Form 3, Form 4, Form 4*, Form 4**, Form 5, Form 7, Form 8, Form 9, Form 10, Form 11, Form 11*, and Form 13 (10 mg for each) was mixed and slurried in 2 mL of solvent at both RT and 50° C. The solids were slurried for 3-5 days and then analyzed by XRD.

[7] = Solubility of the starting solid by the gravimetric method; settings: at RT and at 50° C. in all solvents tested except DMF and DMSO
[8] = reslurry in Acetonitrile/water (5% water), 50° C.
[9] = reslurry in DCM/water (5% water), 50° C.
[10] = reslurry in DCM/water (5% water), RT
[11] = reslurry in Heptane/water (5% water), 50° C.
[12] = reslurry in Heptane/water (5% water), RT
[13] = reslurry in IPAc/water (5% water), 50° C.
[14] = reslurry in MA/water (5% water), RT
[15] = reslurry in MIBK/water (5% water), 50° C.
[16] = reslurry in MeOH/water (5% water), 50° C.
[17] = reslurry in MtBE/water (5% water), 50° C.
[18] = reslurry in Toluene/water (5% water), 50° C.
[19] = reslurry in Toluene/water (5% water), RT
[20] = reslurry in n-Butanol/water (5% water), 50° C.
[21] = reslurry in n-Butanol/water (5% water), RT
[22] = reslurry in n-Butyl acetate/water (5% water), 50° C.
[23] = reslurry in n-Butyl acetate/water (5% water), RT

Question: With `CC(C)CC(=O)Nc1cncc(-c2ccc3[nH]nc(-c4nc5c(-c6cccc(F)c6)cncc5[nH]4)c3c2)c1` [Form 1, N-(5-(3-(7-(3-fluorophenyl)-3H-imidazo[4,5-c]pyridin-2-yl)-1H-indazol-5-yl)pyridin-3-yl)-3-methylbutanamide] as the compound, how does the “water absorption (DVS scan)” value [1] read?
Answer: 17%

Question: What about the water uptake ([2]; exposed to 30% RH (FIG. 15C), hydrate of Form 1) of the same compound?
Answer: 10-12%

Question: What about the water uptake ([2]; exposed to 90% RH (FIG. 15D), full hydrate of Form 1) of the same compound?
Answer: 17-20%

Question: What about the “form when exposed to air” value ([2]; exposed to air) of the same compound?
Answer: converts to Form 13

Question: And the XRD after drying ([3]; dried at 75° C. under vacuum overnight)?
Answer: no change

Question: And the “form after heating (XRD)” value ([3]; heated in a DSC chamber to 305° C.)?
Answer: converted to Form 9

Question: And the “form when heated to just before melting” value ([3]; heated to just before melting at 364° C.)?
Answer: convert to Form 9

Question: And the “RH above which Form 1 tended to convert to hydrate of Form 1 (Form 13)” value [4]?
Answer: above 4050%

Question: Which “Dry (form by XRD)” value [5, 8] does the source give for `CC(C)CC(=O)Nc1cncc(-c2ccc3[nH]nc(-c4nc5c(-c6cccc(F)c6)cncc5[nH]4)c3c2)c1` [Form 13, N-(5-(3-(7-(3-fluorophenyl)-3H-imidazo[4,5-c]pyridin-2-yl)-1H-indazol-5-yl)pyridin-3-yl)-3-methylbutanamide] here?
Answer: Form 13

Question: What about the “Wet (form by XRD)” value [5, 8] of the same compound?
Answer: Form 13

Question: And the “Dry (form by XRD)” value ([5]; reslurry in DCM, 50° C.)?
Answer: Form 13

Question: And the “Wet (form by XRD)” value ([5]; reslurry in DCM, 50° C.)?
Answer: Form 13

Question: What about the “Dry (form by XRD)” value [5, 9] of the same compound?
Answer: Form 1

Question: What about the “Wet (form by XRD)” value [5, 9] of the same compound?
Answer: Form 13

Question: What about the “Dry (form by XRD)” value [5, 10] of the same compound?
Answer: Form 1

Question: And the “Wet (form by XRD)” value [5, 10]?
Answer: Form 13

Question: What about the “Dry (form by XRD)” value ([5]; reslurry in Heptane, 50° C.) of the same compound?
Answer: Form 13

Question: And the “Wet (form by XRD)” value ([5]; reslurry in Heptane, 50° C.)?
Answer: Form 13

Question: And the “Dry (form by XRD)” value [5, 11]?
Answer: Form 1

Question: What about the “Wet (form by XRD)” value [5, 11] of the same compound?
Answer: Form 13

Question: And the “Dry (form by XRD)” value [5, 12]?
Answer: Form 12

Question: What about the “Wet (form by XRD)” value [5, 12] of the same compound?
Answer: Form 13

Question: And the “Dry (form by XRD)” value [5, 13]?
Answer: Form 13

Question: And the “Wet (form by XRD)” value [5, 13]?
Answer: Form 13

Question: And the “Dry (form by XRD)” value [5, 14]?
Answer: Form 1

Question: And the “Wet (form by XRD)” value [5, 14]?
Answer: Form 13

Question: And the “Dry (form by XRD)” value [5, 15]?
Answer: Form 1

Question: And the “Wet (form by XRD)” value [5, 15]?
Answer: Form 13

Question: What about the “Dry (form by XRD)” value ([5]; reslurry in MeOH, RT) of the same compound?
Answer: Form 1

Question: What about the “Wet (form by XRD)” value ([5]; reslurry in MeOH, RT) of the same compound?
Answer: Form 13

Question: What about the “Dry (form by XRD)” value [5, 16] of the same compound?
Answer: Form 13

Question: And the “Wet (form by XRD)” value [5, 16]?
Answer: Form 13

Question: And the “Dry (form by XRD)” value [5, 17]?
Answer: Form 13

Question: What about the “Wet (form by XRD)” value [5, 17] of the same compound?
Answer: Form 13

Question: What about the “Dry (form by XRD)” value [5, 18] of the same compound?
Answer: Form 13

Question: And the “Wet (form by XRD)” value [5, 18]?
Answer: Form 13

Question: What about the “Dry (form by XRD)” value [5, 19] of the same compound?
Answer: Form 1

Question: What about the “Wet (form by XRD)” value [5, 19] of the same compound?
Answer: Form 13

Question: And the “Dry (form by XRD)” value [5, 20]?
Answer: Form 1

Question: What about the “Wet (form by XRD)” value [5, 20] of the same compound?
Answer: Form 13

Question: What about the “Dry (form by XRD)” value [5, 21] of the same compound?
Answer: Form 13

Question: What about the “Wet (form by XRD)” value [5, 21] of the same compound?
Answer: Form 13

Question: What about the “Dry (form by XRD)” value [5, 22] of the same compound?
Answer: Form 1

Question: And the “Wet (form by XRD)” value [5, 22]?
Answer: Form 13

Question: And the “Dry (form by XRD)” value [5, 23]?
Answer: Form 12

Question: And the “Wet (form by XRD)” value [5, 23]?
Answer: Form 13

Question: What about the “Dry (form by XRD)” value ([5]; reslurry in water, 50° C.) of the same compound?
Answer: Form 13

Question: And the “Wet (form by XRD)” value ([5]; reslurry in water, 50° C.)?
Answer: Form 13

Question: And the “Dry (form by XRD)” value ([5]; reslurry in water, RT)?
Answer: Form 1

Question: What about the “Wet (form by XRD)” value ([5]; reslurry in water, RT) of the same compound?
Answer: Form 13

Question: And the “water absorption (DVS scan)” value [1]?
Answer: 17%

Question: And the “RH below which the hydrate lost its water” value ([2]; relative humidity)?
Answer: below 30%

Question: And the “form after heating (XRD)” value ([3]; heated in a DSC chamber to 170° C.)?
Answer: converted to Form 1

Question: And the “form after heating (XRD)” value ([3]; heated to 330° C.)?
Answer: converted to Form 9

Question: And the form upon drying ([3]; upon drying)?
Answer: converted to Form 1

Question: And the “thermodynamic stability between forms (competitive slurry)” value [6]?
Answer: most stable

Question: With `CC(C)CC(=O)Nc1cncc(-c2ccc3[nH]nc(-c4nc5c(-c6cccc(F)c6)cncc5[nH]4)c3c2)c1` [starting solid, N-(5-(3-(7-(3-fluorophenyl)-3H-imidazo[4,5-c]pyridin-2-yl)-1H-indazol-5-yl)pyridin-3-yl)-3-methylbutanamide] as the compound, how does the “Solubility (in words)” value [7] read?
Answer: low solubility
